Counter-ions that a name gives are not always drawn. Like-named read-outs stand apart in the source and are kept apart here.
What was measured:
S. aureus 17740 = experiment: Treatment Effect on the Systemic Infection; assay type: in vivo, NMRI mice; conditions: 240 h
Experimental: (§1) 10 fold of the pathogens which lead to 100% lethality were injected intraperitoneally to male and female NMRI mice weighing 18 to 20 g. Immediately and 4 hours after injection, the dose of test compounds, which was determined by two-fold serial dilution method, was administered orally or subcutaneously to the mice, and on the 10th day, the effect was evaluated in terms of ED50 calculated from the number of survived mice by the probit analysis.

P. mirabilis = experiment: Treatment Effect on the Systemic Infection; assay type: in vivo, NMRI mice; conditions: Proteus mirabilis, in Mus musculus, 240 h
Experimental: as §1

[1] = system: Pseudomonas aeruginosa 1771M; experiment: In Vitro Anti-Bacterial Activity Test (MIC, agar dilution); assay type: cell-based; conditions: Pseudomonas aeruginosa, 1771M, 18 h, Muller-Hinton agar, 37° C.
Summary of the method: (§2)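 Ciprofloxacin was the control antibacterial in this Muller-Hinton agar dilution test. Cultures of 10^7 C.F.U./ml grew for 18 hours at 37° C., and inhibition of growth set the MIC.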

Escherichia coli TEM = experiment: as above; assay type: cell-based; conditions: Escherichia coli, 18 h, Muller-Hinton agar, 37° C.
Summary of the method: (§3)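 Read-out is visual growth inhibition on compound-containing Muller-Hinton agar, giving the MIC. Bacteria (10^7 C.F.U./ml) incubate 18 hours at 37° C.; ciprofloxacin is included as comparator drug.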

[2] = system: Streptococcus faecium MD8b; experiment: as above; assay type: cell-based; conditions: Enterococcus faecium, Muller-Hinton agar, 37° C., 18 hours, read-out: MIC
Summary of the method: as §2

[3] = system: Enterobacter cloacae 1321E; experiment: as above; assay type: cell-based
Summary of the method: as §2

[4] = system: Klebsiella aerogenes 1522E; experiment: as above; assay type: cell-based; conditions: Klebsiella aerogenes, 1522E, 18 h, Klebsiella aerogenes 1522E; Muller-Hinton agar, 37° C., 18 hours; read-out: MIC
Summary of the method: as §2

[5] = system: Streptococcus pyogenes 77A; experiment: as above; assay type: cell-based
Summary of the method: as §2

Klebsiella oxytoca 1082E = experiment: as above; assay type: cell-based; conditions: Klebsiella oxytoca 1082E; Muller-Hinton agar, 37° C., 18 hours; read-out: MIC
Summary of the method: as §2

Escherichia coli DC0 = experiment: as above; assay type: cell-based; conditions: Muller-Hinton agar, 37° C., 18 hours, read-out: MIC
Summary of the method: as §2

[6] = system: Staphylococcus aureus 503; experiment: as above; assay type: cell-based; conditions: Staphylococcus aureus 503; Muller-Hinton agar, 37° C., 18 hours; read-out: MIC
Summary of the method: as §2

[7] = system: Pseudomonas aeruginosa 9027; experiment: as above; assay type: cell-based; conditions: Muller-Hinton agar, 37° C., 18 hours, read-out: MIC
Summary of the method: as §2

Escherichia coli DC2 = experiment: as above; assay type: cell-based; conditions: Escherichia coli, DC2, 18 h
Summary of the method: as §2

[8] = system: Streptococcus pyogenes 308A; experiment: as above; assay type: cell-based; conditions: Muller-Hinton agar, 37° C., 18 hours, read-out: MIC
Summary of the method: as §2

Escherichia coli 1507E = experiment: as above; assay type: cell-based; conditions: Muller-Hinton agar, 37° C.
Summary of the method: as §2

Salmonella typhimurium = experiment: as above; assay type: cell-based; conditions: Salmonella enterica; Salmonella typhimurium; Muller-Hinton agar, 37° C., 18 hours; read-out: MIC
Summary of the method: as §2

[9] = system: Pseudomonas aeruginosa 1771; experiment: as above; assay type: cell-based; conditions: Pseudomonas aeruginosa 1771; Muller-Hinton agar, 37° C., 18 hours; read-out: MIC
Summary of the method: as §2

[10] = system: Staphylococcus aureus 285; experiment: as above; assay type: cell-based; conditions: Staphylococcus aureus, 285, 18 h, Staphylococcus aureus 285; Muller-Hinton agar, 37° C., 18 hours; read-out: MIC
Summary of the method: as §2

[11] = system: Staphylococcus aureus SG511; experiment: as above; assay type: cell-based; conditions: Staphylococcus aureus SG511; Muller-Hinton agar, 37° C., 18 hours; read-out: MIC
Summary of the method: as §2

Escherichia coli 078 = experiment: as above; assay type: cell-based
Summary of the method: as §2

[12] = system: Pseudomonas aeruginosa 1592E; experiment: as above; assay type: cell-based; conditions: Muller-Hinton agar, 37° C., 18 hours, read-out: MIC
Summary of the method: as §2

Enterobacter cloacae P99 = experiment: as above; assay type: cell-based; conditions: Enterobacter cloacae, P99, 18 h
Summary of the method: as §3

Acute Toxicity Test = conditions: mouse, in vivo, ICR mice, 14th day
Experimental: Test compounds were administered to ICR mice weighing 20 to 25 g. On 14th day, LD50 was calculated from the number of survived mice by the probit analysis.

[13] = Staphylococcus aureus, in Mus musculus, S. aureus 17740, oral, immediately and 4 hours after infection, survival on 10th day, read-out: ED50 Oral Administration
[14] = Staphylococcus aureus, in Mus musculus, sc, S. aureus 17740, subcutaneous, immediately and 4 hours after infection, survival on 10th day, read-out: ED50 Subcutaneous Injection
[15] = P. mirabilis, oral, immediately and 4 hours after infection, survival on 10th day, read-out: ED50 Oral Administration
[16] = sc, P. mirabilis, subcutaneous, immediately and 4 hours after infection, survival on 10th day, read-out: ED50 Subcutaneous Injection
[17] = Enterobacter cloacae 1321E, Muller-Hinton agar, 37° C., 18 hours, read-out: MIC
[18] = Streptococcus pyogenes 77A, Muller-Hinton agar, 37° C., 18 hours, read-out: MIC
[19] = Escherichia coli 078, Muller-Hinton agar, 37° C., 18 hours, read-out: MIC
[20] = ip, read-out: Acute Toxicity LD50, Peritomeo Injection
[21] = oral, read-out: Acute Toxicity LD50, Oral Administration
[22] = Streptococcus pyogenes, 77A, 18 h

| SMILES | ED50 (S. aureus 17740; [13]) [mg/kg] | ED50 (S. aureus 17740; [14]) [mg/kg] | MIC [1] [mg/L] | MIC (Escherichia coli TEM) [mg/L] | MIC [2] [mg/L] | MIC [3, 17] [mg/L] | MIC [4] [mg/L] | MIC (Klebsiella oxytoca 1082E) [mg/L] | MIC (Escherichia coli DC0) [mg/L] | MIC [6] [mg/L] | MIC [7] [mg/L] | MIC (Escherichia coli DC2) [mg/L] | MIC [8] [mg/L] | MIC (Salmonella typhimurium) [mg/L] | MIC [9] [mg/L] | MIC [10] [mg/L] | MIC [11] [mg/L] | MIC [12] [mg/L] | MIC (Enterobacter cloacae P99) [mg/L] | MIC (Escherichia coli 1507E; Escherichia coli, 1507E, 18 h) [mg/L] | other results |
| --- | --- | --- | --- | --- | --- | --- | --- | --- | --- | --- | --- | --- | --- | --- | --- | --- | --- | --- | --- | --- | --- |
| O=C(O)c1cn(C2CC2)c2cc(N3CCNCC3)c(F)cc2c1=O [Ciprofloxacin, reference compound] |  |  |  |  |  |  |  |  |  |  |  |  |  |  |  |  |  |  |  |  | ED50 (S. aureus 17740; Staphylococcus aureus, 17740, in Mus musculus, po, read-out: ED50 Oral Administration): > 200 mg/kg; ED50 (P. mirabilis; po, read-out: ED50 Oral Administration): 0.82 mg/kg; ED50 (P. mirabilis; sc, read-out: ED50 Subcutaneous Injection): 0.16 mg/kg |
| N[C@H]1CCN(c2c(F)cc3c(=O)c(C(=O)C[N+](=O)[O-])cn(C4CC4)c3c2Cl)C1 [Example 13, 1-cyclopropyl-6-fluoro-8-chloro-7-(3-3S-aminopyrrolidin-1-yl)-3-(2-nitroacetyl)-1,4-dihydro-4-oxoquinoline hydrochloride] | 128 | 16.8 | 0.049 | < 0.002 | 0.195 | < 0.002 | 0.013 | < 0.002 | 0.049 | 0.049 | 0.195 | 0.013 | 0.195 | < 0.002 | 0.195 | 0.025 | 0.025 | 0.195 | 0.004 |  | ED50 (P. mirabilis; [15]): 0.21 mg/kg; ED50 (P. mirabilis; [16]): 0.08 mg/kg; MIC [5, 18]: 0.195 mg/L; MIC (Escherichia coli 1507E; 18 hours, read-out: MIC): 0.004 mg/L; MIC (Escherichia coli 078; [19]): < 0.002 mg/L; LD50 at 336 h (Acute Toxicity Test; [20]): 580 mg/kg; LD50 at 336 h (Acute Toxicity Test; [21]): 3800 mg/kg |
| CNCC1=CCN(c2c(F)cc3c(=O)c(C(=O)C[N+](=O)[O-])cn(C4CC4)c3c2Cl)C1 [Example 16, 1-cyclopropyl-6-fluoro-8-chloro-7-(3-methylaminomethyl-2,5-dihydropyrrol-1-yl)-3-(2-nitroacetyl)-1,4-dihydro-4-oxoquinoline hydrochloride] | 49.7 | 97.6 | 0.195 | 0.004 | 0.013 |  | 0.013 | 0.007 | 0.098 | < 0.002 | 0.781 | 0.013 | 0.098 | < 0.02 | 0.391 | 0.004 | 0.004 | 0.781 | 0.007 | 0.013 | MIC ([3]; Enterobacter cloacae, 1321E, 18 h): 0.007 mg/L; MIC [5, 18]: 0.025 mg/L; MIC (Escherichia coli 078; [19]): 0.004 mg/L; LD50 at 336 h (Acute Toxicity Test; [20]): 605 mg/kg; LD50 at 336 h (Acute Toxicity Test; [21]): 3800 mg/kg |
| O=C(C[N+](=O)[O-])c1cn(C2CC2)c2c(Cl)c(N3CC4=C(CNC4)C3)c(F)cc2c1=O [Example 34, 1-cyclopropyl-6-fluoro-8-chloro-7-(3,7-diazabicyclo[3.3.0]oct-1,5-en-3-yl)-3-(2-nitroacetyl)-1,4-dihydro-4-oxoquinoline hydrochloride] |  |  | 0.098 | 0.007 | 0.098 | 0.049 | 0.013 | < 0.002 | 0.195 | 0.098 | 0.391 | 0.098 | 0.391 | 0.004 | 0.195 | 0.049 | 0.025 | 0.391 | 0.007 | 0.007 | ED50 (P. mirabilis; [15]): 0.41 mg/kg; ED50 (P. mirabilis; [16]): 0.16 mg/kg; MIC [5, 18]: 0.098 mg/L; MIC (Escherichia coli 078; [19]): < 0.002 mg/L; LD50 at 336 h (Acute Toxicity Test; [20]): 620 mg/kg; LD50 at 336 h (Acute Toxicity Test; [21]): 4000 mg/kg |
| CN[C@@H]1CCN(c2c(F)cc3c(=O)c(C(=O)C[N+](=O)[O-])cn(C4CC4)c3c2OC)C1 [Example 64, 1-cyclopropyl-6-fluoro-8-methoxy-7-(3-3R-methylaminopyrrolidin-1-yl)-3-(2-nitroacetyl)-1,4-dihydro-4-oxoquinoline hydrochloride] |  |  | 0.781 | 0.049 | 0.391 | 0.049 | 0.098 | 0.007 | 0.391 | 0.098 | 1.56 | 0.049 | 0.781 | 0.013 | 0.781 | 0.098 | 0.391 | 1.56 | 0.049 | 0.098 | MIC [5, 22]: 0.781 mg/L; MIC (Escherichia coli 078; Escherichia coli, 078, 18 h): 0.049 mg/L |
| CN[C@H]1CCN(c2c(F)cc3c(=O)c(C(=O)C[N+](=O)[O-])cn(C4CC4)c3c2OC)C1 [Example 65, 1-cyclopropyl-6-fluoro-8-methoxy-7-(3-3S-methylaminopyrrolidin-1-yl)-3-(2-nitroacetyl)-1,4-dihydro-4-oxoquinoline hydrochloride] |  |  | 1.56 | 0.049 | 0.781 | 0.013 | 0.049 | 0.049 | 0.781 | 0.098 | 1.56 | 0.195 | 0.781 | 0.781 | 1.56 | 0.049 | 0.049 | 1.56 | 0.013 | 0.195 | MIC [5, 22]: 0.781 mg/L; MIC (Escherichia coli 078; Escherichia coli, 078, 18 h): 0.049 mg/L |
| CNC1CCN(c2c(F)cc3c(=O)c(C(=O)C[N+](=O)[O-])cn(C4CC4)c3c2OC)C1 (stereo not drawn) [Example 66, 1-cyclopropyl-6-fluoro-8-methoxy-7-(3-methylaminopyrrolidin-1-yl)-3-(2-nitroacetyl)-1,4-dihydro-4-oxoquinoline hydrochloride] |  |  | 1.56 | 0.195 | 0.781 | 0.049 | 0.013 | 0.098 | 0.781 | 0.098 | 1.56 | 0.195 | 1.56 | 0.781 | 1.56 | 0.391 | 0.391 | 1.56 | 0.195 | 0.391 | MIC [5, 22]: 0.781 mg/L; MIC (Escherichia coli 078; Escherichia coli, 078, 18 h): 0.098 mg/L |
| CC1COc2c(N3CCN(C)CC3)c(F)cc3c(=O)c(C(=O)O)cn1c23 (stereo not drawn) [Ofloxacin, reference compound] | > 200 | 200 |  |  |  |  |  |  |  |  |  |  |  |  |  |  |  |  |  |  | ED50 (P. mirabilis; [15]): 1.64 mg/kg; ED50 (P. mirabilis; [16]): 0.33 mg/kg |

Reference: patent US5409933A, “Quinoline derivatives and processes for preparing the same” (priority 1993, dated 1995)
